Experimental data taken from patent publication US10231463B2, “Food mass suitable for microwaving” (Chemische Fabrik Budenheim KG, priority 2013, dated 2019).

How the values were obtained:
[1] = Thawing and baking trials with yeast-raised wheat frozen doughs in a microwave oven; conditions: yeast-raised wheat frozen dough; for ΔT (temperature difference between crust temperature and crumb temperature): 2 parts by weight additive, 600 watts, 120 seconds; for Microwave activity: assessment scale from ΔT
Protocol: Dough Composition (Basic Recipe):
In addition 2 parts by weight of microwave absorber were added to the basic recipe.
• Mixing and kneading time: 3+2 minutes (the latter in a Stephan mixer) • Dough standing time: 20 minutes • Dough piece weight: 200 g • Cooking time of the dough pieces: 20 minutes • Freezing time: about 4 hours • Deep freeze storage time: about 2 days Thawing and Baking Trials:
The deep-frozen dough pieces were exposed to microwave radiation in a microwave oven from Panasonic (model: NN-GD560M—inverter microwave) for a predetermined period of 120 seconds and with a predetermined microwave power of 600 watts (according to the device indication). After 2 minutes of standing time the temperature of the crust and the crumb was measured by means of an infrared temperature sensor at various measurement points on the dough piece.
Measurement value 1 (M1)=average crust temperature outside
Measurement value 2 (M2)=average crumb temperature in the interior of the dough piece.

[2] = Pore volume by nitrogen gas adsorption (BJH method, BELSORP-mini II); assay type: physicochemical; conditions: total pore volume Vp, nitrogen adsorption at 77.3 K
Source text: Determining the Pore Volume
The pore volume in accordance with the present invention is characterised by means of gas adsorption. The recording of physisorption isotherms (adsorption and desorption isotherms) of inert gas molecules at low temperatures is routinely used for determining solids parameters.
The BJH method provides an algorithm for the calculation of pore width distribution from nitrogen adsorption data on the assumption of a cylindrical pore geometry. In that respect consideration is given to the change in the adsorbed volume in the pores in dependence on the pore radius, wherein the pore radius distribution function is related as a relative value to the total pore volume. […] It is assumed that the entire pore system is filled with a capillary condensate.

[3] = Solubility of the additive in water at 20° C.; assay type: physicochemical
[4] = Thawing and baking trials with puff pastry in a microwave oven; conditions: for ΔT (temperature difference between crust temperature and crumb temperature): 2 parts by weight additive, puff pastry dough pieces; for Microwave activity: assessment scale from ΔT, puff pastry doughs
Protocol: A puff pastry from Veripan was used as the basic recipe.
2 parts by weight of microwave absorber were further added to the basic recipe.
Wheat flour, inverted sugar, emulsifier and optionally microwave absorber were put into a mixing container and mixed. The water and 20% of the vegetable fat were added and kneaded for 3 minutes at a low stage and for 5 minutes at a medium stage with a spiral kneader. The dough temperature was monitored. The target temperature was 18° C. After that the remaining vegetable fat was beaten into the dough. The dough was then folded at intervals each of 30 minutes in 4 working steps, more specifically 2 single and 2 double turns. They give by calculation 144 fat layers (margarine), divided into very thin dough and fat layers. Before processing the dough was stored in a cooled condition for 12 hours.
Unbaked puff pastry dough roundels without filling and pre-baked puff pastry dough pockets (hot pockets) with a tomato sauce filling were respectively subjected to microwave radiation as deep-frozen dough pieces in a microwave oven from Panasonic (see Example 2) for a predetermined period and with a predetermined microwave power. After a […] standing time the temperature of the dough piece was measured by means of a thermal imaging camera (Fluke Ti20) and evaluated.
Measurement value 1 (M1)=averaged crust temperature outside
Measurement value 2 (M2)=averaged crumb temperature in the interior of the dough piece.
Puff pastry dough roundel (PPD-RO): 440 watts; 200 seconds
Puff pastry dough hot pockets (PPD-HP): 600 watts; 300 seconds
Table 3 hereinafter reproduces the additives used, the temperature measurement values M1 and M2 and the corresponding temperature difference (ΔT) between crust temperature and crumb temperature of the dough piece.
Assessment of Microwave Activity in Puff Pastry Doughs 1: ΔT=>20° C.=very good 2: ΔT=15 to <20° C.=good 3: ΔT=<15° C.=no additional additive

[5] = Baking trials with ready-to-eat baking mixture (lemon cake) in a microwave oven; conditions: for ΔT (temperature difference between crust temperature and crumb temperature): 2 parts by weight additive, 600 watts, 140 seconds; for Microwave activity: assessment scale from ΔT
Protocol: A ready-to-eat baking mixture for lemon cakes from […] was used as the basic recipe. […] Whole egg and sugar were put into a mixing container and mixed. The powder mixture of the composition (wheat flour, cooking salt and so forth) was slowly mixed in. Vegetable oil, flavouring substances and alcohol were then slowly added and mixing was effected for 12 minutes. After that baking raising agent was added and mixed at a medium stage for a further 2 minutes. After that the microwave absorber was mixed in, the mixer was switched off, and the material was tipped out and stored cool.

Row | Compound | ΔT (temperature difference between crust temperature and crumb temperature) [1] | Microwave activity [1] | Pore Volume [2] | Solubility [3] | ΔT (temperature difference between crust temperature and crumb temperature) [4] | Microwave activity [4] | ΔT (temperature difference between crust temperature and crumb temperature) [5] | Microwave activity [5]
1 | O.O.O=P([O-])([O-])[O-].O=P([O-])([O-])[O-].[Zn+2].[Zn+2].[Zn+2] [TZP, Trizinc phosphate dihydrate] | 38.0 °C | 2 (ΔT=25 to 40° C.=good) | 6.3 10^−3 cm^3/g | – | – | – | – | –
2 | O.O=P([O-])(O)O.O=P([O-])(O)O.[Ca+2] [MCPM, Monocalcium phosphate monohydrate] | 32.5 °C | 2 (ΔT=25 to 40° C.=good) | 23 10^−3 cm^3/g | – | – | – | – | –
3 | O=C([O-])[O-].[Ca+2] [CaCO3, Calcium carbonate] | 31.5 °C | 2 (ΔT=25 to 40° C.=good) | 9.0 10^−3 cm^3/g | – | – | – | – | –
4 | Ammonium molybdate [AmMD(V), reference compound] | 24.2 °C | 3 (ΔT=<25° C.=no additional activity) | 2.6 10^−3 cm^3/g | – | – | – | – | –
5 | O=P([O-])([O-])OP(=O)([O-])[O-].[Cu+2].[Cu+2] [CuPP, Copper-II pyrophosphate] | 37.9 °C | 2 (ΔT=25 to 40° C.=good) | 12 10^−3 cm^3/g | – | – | – | – | –
6 | O=S(=O)([O-])[O-].O=S(=O)([O-])[O-].[Al+3].[Na+] [SAS, Acid sodium aluminium sulphate] | 39.6 °C | 2 (ΔT=25 to 40° C.=good) | 3.9 10^−3 cm^3/g | – | – | – | – | –
7 | O=P(O)(O)OP(=O)(O)OP(=O)(O)O [STPP(V), Sodium tripolyphosphate, reference compound] | 12.6 °C | 3 (ΔT=<25° C.=no additional activity) | 1.1 10^−3 cm^3/g | 145 mg/mL | – | – | – | –
8 | O=P([O-])(O)O.O=P([O-])(O)O.[Ca+2] [MCPA(V), Monocalcium phosphate anhydrate, reference compound] | 17.0 °C | 3 (ΔT=<25° C.=no additional activity) | 2.3 10^−3 cm^3/g | – | – | – | – | –
9 | O=P([O-])([O-])OP(=O)([O-])[O-].[Mg+2].[Mg+2] [MgPP, Magnesium pyrophosphate] | 45.8 °C | 1 (ΔT=>40° C.=very good) | 7.1 10^−3 cm^3/g | – | 15.2 °C | 2 (ΔT=15 to <20° C.=good) | 19.1 °C | 2 (ΔT=15 to <20° C.=good)
10 | Sodium aluminium phosphate 1:3:8 NaH14Al3(PO4)8 [SALP 1] | 29.6 °C | 2 (ΔT=25 to 40° C.=good) | 13 10^−3 cm^3/g | 15 mg/mL | – | – | – | –
11 | O.O.O.O.O=P([O-])([O-])[O-].O=P([O-])([O-])[O-].[Mg+2].[Mg+2].[Mg+2] [TMP, Trimagnesium phosphate tetrahydrate] | 41.0 °C | 1 (ΔT=>40° C.=very good) | 16 10^−3 cm^3/g | – | – | – | – | –
12 | O=P([O-])([O-])OP(=O)([O-])[O-].[Na+].[Na+].[Na+].[Na+] [TSPP, Tetrasodium pyrophosphate] | 40.8 °C | 1 (ΔT=>40° C.=very good) | 3.3 10^−3 cm^3/g | – | – | – | – | –
13 | Calcium gluconate [CaGl] | 36.6 °C | 2 (ΔT=25 to 40° C.=good) | 10.0 10^−3 cm^3/g | – | – | – | – | –
14 | O.O.O.O=P([O-])([O-])O.[Mg+2] [DMP, Dimagnesium phosphate trihydrate] | 41.9 °C | 1 (ΔT=>40° C.=very good) | 6.0 10^−3 cm^3/g | – | – | – | – | –
15 | O=P([O-])(O)O.O=P([O-])(O)O.[Mg+2] [MSPA, Monomagnesium phosphate anhydrate] | 41.1 °C | 1 (ΔT=>40° C.=very good) | 4.5 10^−3 cm^3/g | – | – | – | – | –
16 | O.O.O=P([O-])([O-])O.[Ca+2] [DCPD, Dicalcium phosphate dihydrate] | 26.2 °C | 2 (ΔT=25 to 40° C.=good) | 5.3 10^−3 cm^3/g | – | – | – | – | –
17 | O=P([O-])([O-])[O-].O=P([O-])([O-])[O-].[Ca+2].[Ca+2].[Ca+2] [TCP, Tricalcium phosphate] | 36.2 °C | 2 (ΔT=25 to 40° C.=good) | 120 10^−3 cm^3/g | – | – | – | – | –
18 | O=P([O-])([O-])OP(=O)([O-])[O-].O=P([O-])([O-])OP(=O)([O-])[O-].O=P([O-])([O-])OP(=O)([O-])[O-].[Fe+3].[Fe+3].[Fe+3].[Fe+3] [FePP, Iron-III-pyrophosphate] | 42.6 °C | 1 (ΔT=>40° C.=very good) | 30 10^−3 cm^3/g | – | 16.9 °C | 2 (ΔT=15 to <20° C.=good) | 26.4 °C | 1 (ΔT=>20° C.=very good)
19 | [Mg+2].[OH-].[OH-] [Mg(OH)2, Magnesium hydroxide] | 62.5 °C | 1 (ΔT=>40° C.=very good) | 18.2 10^−3 cm^3/g | – | – | – | – | –
20 | O=C([O-])CC(O)(CC(=O)[O-])C(=O)[O-].O=C([O-])CC(O)(CC(=O)[O-])C(=O)[O-].[Ca+2].[Ca+2].[Ca+2] [TCC, Tricalcium citrate] | 28.6 °C | 2 (ΔT=25 to 40° C.=good) | 14.2 10^−3 cm^3/g | – | – | – | – | –
21 | O=P([O-])([O-])[O-].[Fe+3] [FeOP, Iron-III-orthophosphate] | 47.0 °C | 1 (ΔT=>40° C.=very good) | 19 10^−3 cm^3/g | – | 15.1 °C | 2 (ΔT=15 to <20° C.=good) | 15.9 °C | 2 (ΔT=15 to <20° C.=good)
22 | O=P([O-])([O-])OP(=O)([O-])[O-].[Zn+2].[Zn+2] [ZPP, Zinc pyrophosphate] | 37.9 °C | 2 (ΔT=25 to 40° C.=good) | 10.5 10^−3 cm^3/g | – | – | – | – | –
23 | O=P([O-])(O)OP(=O)([O-])O.[Ca+2] [CAPP, Acid calcium pyrophosphate] | 50.0 °C | 1 (ΔT=>40° C.=very good) | 3.6 10^−3 cm^3/g | – | 26.1 °C | 1 (ΔT=>20° C.=very good) | 21.2 °C | 1 (ΔT=>20° C.=very good)
24 | [Cl-].[Cl-].[Mg+2] [MgCl2(V), Magnesium chloride, reference compound] | 19.8 °C | 3 (ΔT=<25° C.=no additional activity) | 2.0 10^−3 cm^3/g | – | – | – | – | –
